Like-named read-outs stand apart in the source and are kept apart here.

Holding throughout (format): cell-based
In test [1] the target is T1, CB1 receptor (Homo sapiens, UniProt P21554). Put plainly: FLIPR calcium flux assay, antagonist format, CB1. The conditions noted are these: reference agonist CP-55,940 at EC80 as 0% inhibition; for % Inhibition Antagonist CB1: 1 μM. The method, then:
(§1) A FLIPR assay was conducted to monitor agonist and antagonist selectivity for compounds of the invention against the CBI and GLP-1 receptors. Percentage activation and percentage inhibition values were determined for each compound on each of the GPCRs listed above. Agonist selectivity was determined upon initial addition of compounds followed by 10 minute incubation at 25° C. Following compound incubation, reference agonists were added at EC80 to determine percentage inhibition.
(§2) Agonist percentage activation determinations were obtained by assaying sample compounds and referencing the Emax control for each of the GPCRs profiled. Antagonist percentage inhibition determinations were obtained by assaying sample compounds and referencing the control EC80 wells for each of the GPCRs profiled. The protocol design is as follows:
(§3) Unless specified otherwise, all sample compounds were diluted in 100% anhydrous DMSO including all serial dilutions. Occasionally sample compounds were provided in a different solvent, in this case all master stock dilutions were performed in the specified diluent. All control wells contained identical solvent final concentrations as sample compound wells.
(§4) Sample compounds were transferred from a master stock solution into a daughter plate that was used in the assay. Each sample compound was diluted into assay buffer (1×HBSS with 20 mM HEPES) at an appropriate concentration to obtain final concentrations.
(§5) Using the EC50 values determined previously, stimulated all pre-incubated sample compound and reference antagonist (if applicable) wells with EC80 of reference agonist. Read for 90 seconds using the FLIPRTETRA. (This assay added reference agonist to respective wells—then fluorescence measurements were collected to calculate percentage inhibition.)
(§6) All plates were subjected to appropriate baseline corrections. Once baseline corrections were processed, maximum fluorescence values were exported and data manipulated to calculate percentage activation, percentage inhibition, Z′, EC50, and IC50. Percentage activation data was calculated using Emax as 100% control. Percentage inhibition was calculated using EC80 as 0% inhibition.

For test [2], the target named is T2, GLP-1 receptor (Homo sapiens, UniProt P43220). Put plainly: FLIPR calcium flux assay, agonist format, GLP-1. The conditions noted are these: Emax of reference ligand Glucagon as 100%; for % Activation Agonist GLP-1: 1 μM. As to the method: as §1, §2, §3, §4
(§7) All sample compounds were plated at 1 μM in duplicate for assaying against all GPCRs. Reference agonists were handled as mentioned above serving as assay control. These reference agonists were handled as described above for both EMax and EC80 control wells. Assay was read for 90 seconds using the FLIPRTETRA. (This assay run added sample compounds and reference agonist to respective rows.) At the completion of the first “Single Addition” assay run, assay plate was removed from the FLIPRTetra and placed at 25° C. for 10 minutes.
as §6

Test [3] has as its target T1, CB1 receptor. Put plainly: FLIPR calcium flux assay, agonist format, CB1. The conditions noted are these: Emax of reference agonist CP-55,940 as 100%; for % Activation Agonist CB1: 1 μM. The method, then: as §1, §2, §3, §4, §7, §6
The target in test [4] is T2, GLP-1 receptor. Put plainly: FLIPR calcium flux assay, antagonist format, GLP-1. The conditions noted are these: for inhibition at 1 µM: read-out: % Inhibition Antagonist GLP-1. As to the method: as §1, §2, §3, §4, §5, §6
[5] abbreviates: 1 μM, reference ligand Glucagon at EC80 as 0% inhibition.

T2 sequence (P43220 24-463): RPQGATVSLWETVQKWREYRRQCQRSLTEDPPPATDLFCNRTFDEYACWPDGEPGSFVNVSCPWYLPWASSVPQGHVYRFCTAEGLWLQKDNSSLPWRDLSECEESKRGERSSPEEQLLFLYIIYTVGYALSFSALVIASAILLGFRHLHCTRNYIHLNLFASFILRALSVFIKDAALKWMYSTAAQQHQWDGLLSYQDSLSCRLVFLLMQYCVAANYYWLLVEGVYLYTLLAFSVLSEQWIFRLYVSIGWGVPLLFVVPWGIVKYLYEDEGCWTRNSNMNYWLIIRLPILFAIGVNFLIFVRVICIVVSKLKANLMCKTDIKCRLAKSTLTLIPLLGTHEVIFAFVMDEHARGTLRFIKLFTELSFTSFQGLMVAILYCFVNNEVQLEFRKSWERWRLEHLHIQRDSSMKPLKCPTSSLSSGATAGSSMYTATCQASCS
T1 sequence (P21554 whole entry): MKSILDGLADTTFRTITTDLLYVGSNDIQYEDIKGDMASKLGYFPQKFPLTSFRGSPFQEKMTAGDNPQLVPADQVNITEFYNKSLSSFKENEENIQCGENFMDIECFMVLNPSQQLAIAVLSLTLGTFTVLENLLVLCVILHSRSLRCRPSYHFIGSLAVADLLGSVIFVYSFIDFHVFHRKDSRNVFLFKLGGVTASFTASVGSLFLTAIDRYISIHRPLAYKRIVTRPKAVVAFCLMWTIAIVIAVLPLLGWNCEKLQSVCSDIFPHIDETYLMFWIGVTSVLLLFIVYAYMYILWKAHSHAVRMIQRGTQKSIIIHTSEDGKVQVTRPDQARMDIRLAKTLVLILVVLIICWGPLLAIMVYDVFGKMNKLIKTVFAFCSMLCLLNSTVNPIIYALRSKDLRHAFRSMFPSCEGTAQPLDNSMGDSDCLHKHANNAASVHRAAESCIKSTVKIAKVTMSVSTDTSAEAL

On to `O=C(c1ccccc1)c1ccc2n1CCC2C(=O)NCC[C@@H](Oc1ccc(C(F)(F)F)cc1)c1ccccc1` (stereo partly drawn) [Compound 5a], for which the inhibition at 1 µM was 48.7% in test [1] and -6.3% in test [4] (setting [5]). For the same compound, the activation at 1 µM in test [2] is 0.4%; in test [3] it was 0.3%.
For `COc1ccc2c(c1)c(CC(=O)NCC[C@@H](Oc1ccc(C(F)(F)F)cc1)c1ccccc1)c(C)n2C(=O)c1ccc(Cl)cc1` [Compound 7a], in that order: 46.9%, 0%, 4.2% and -0.5%.
Regarding `CN(CCC(Oc1ccc(C(F)(F)F)cc1)c1ccccc1)C(=O)C1CCn2c(C(=O)c3ccccc3)ccc21` (stereo not drawn) [Compound 13], the inhibition at 1 µM in test [1] was 37.7%; in test [4] (setting [5]), -15.4%. Further, the activation at 1 µM worked out at 0.8% in test [2] and 0.9% in test [3].
With `C[C@H](C(=O)N(C)CCC(Oc1ccc(C(F)(F)F)cc1)c1ccccc1)c1cccc(C(=O)c2ccccc2)c1` (stereo partly drawn) [Compound 14], the inhibition at 1 µM amounted to 56.6% in test [1] and 17.2% in test [4] (setting [5]). Besides, the activation at 1 µM in test [2] was -2.4%; in test [3], 1.2%.
In the case of `COc1ccc2c(c1)c(CC(=O)N(C)CCC(Oc1ccc(C(F)(F)F)cc1)c1ccccc1)c(C)n2C(=O)c1ccc(Cl)cc1` (stereo not drawn) [Compound 15], the inhibition at 1 µM in test [1] is 34.4%; in test [4] (setting [5]), -5.1%. Moreover, the activation at 1 µM in test [2] is -0.2%; in test [3] it was 0%.
As to `CN(Cc1ccccc1)C1CCN(C(C(=O)NCC[C@@H](Oc2ccc(C(F)(F)F)cc2)c2ccccc2)c2nc(-c3ccc(C(F)(F)F)cc3)no2)CC1` (stereo partly drawn) [Compound 16], the activation at 1 µM stood at 21.3% in test [2] and 6.9% in test [3].
`C[C@H]1CCN(C(C(=O)NCC[C@@H](Oc2ccc(C(F)(F)F)cc2)c2ccccc2)c2nc(-c3ccc(C(F)(F)F)cc3)no2)C[C@@H]1COc1ccc(C(F)(F)F)cc1` (stereo partly drawn) [Compound 17]: in test [2], the “% Activation Agonist GLP-1” value was found to be 9.4%. Besides, the “% Activation Agonist CB1” value in test [3] is 8.6%.
In the same order, the values of `C[C@@H]1CCN(C(C(=O)NCC[C@@H](Oc2ccc(C(F)(F)F)cc2)c2ccccc2)c2nc(-c3ccc(C(F)(F)F)cc3)no2)C[C@@H]1COc1ccc(C(F)(F)F)cc1` (stereo partly drawn) [Compound 18] are 20.6% and 6.2%.
As to `O=C(NCC[C@@H](Oc1ccc(C(F)(F)F)cc1)c1ccccc1)C(c1nc(-c2ccc(C(F)(F)F)cc2)no1)N1CCC[C@@H](COc2ccc(C(F)(F)F)cc2)C1` (stereo partly drawn) [Compound 19], the “% Activation Agonist GLP-1” value in test [2] is recorded as 6.5%. In test [3], the “% Activation Agonist CB1” value came out at 0.5%.
In the case of `C[C@H]1CCN(C(C(=O)NCCOc2ccc(C(F)(F)F)cc2)c2nc(-c3ccc(C(F)(F)F)cc3)no2)C[C@@H]1COc1ccc(C(F)(F)F)cc1` (stereo partly drawn) [Compound 20], the “% Inhibition Antagonist CB1” value in test [1] worked out at 14.5%. For the same compound, the “% Activation Agonist GLP-1” value in test [2] came out at 7.5%. Besides, the “% Activation Agonist CB1” value in test [3] is reported as 1.9%. Moreover, the “% Inhibition Antagonist GLP-1” value in test [4] (setting [5]) was −14.4%.
For the compound `O=C(Cc1nc(-c2ccc(C(F)(F)F)cc2)no1)NCC[C@@H](Oc1ccc(C(F)(F)F)cc1)c1ccccc1` [Compound 23], the “% Activation Agonist GLP-1” value in test [2] was determined as 11.9%. The “% Activation Agonist CB1” value in test [3] is listed as 7.8%.
`CN(Cc1ccccc1)C1CCN(C(C(=O)NCCOc2ccc(C(F)(F)F)cc2)c2nc(-c3ccc(C(F)(F)F)cc3)no2)CC1` (stereo not drawn) [Compound 24]: the “% Inhibition Antagonist CB1” value in test [1] stood at 4.6%. Moreover, the “% Activation Agonist GLP-1” value in test [2] came to 5.9%. Moreover, the “% Activation Agonist CB1” value in test [3] is listed as 1.6%. The “% Inhibition Antagonist GLP-1” value in test [4] (setting [5]) is recorded as −1.6%.
`CC(C(=O)N(C)CC[C@@H](Oc1ccc(C(F)(F)F)cc1)c1ccccc1)c1ccc(CN(C)C)cc1` (stereo partly drawn) [Compound 25a]: the figures for the inhibition at 1 µM in test [1] and in test [4] (setting [5]) were 79.9% and 5.7%, respectively. The activation at 1 µM was -2.7% in test [2] and 0.8% in test [3].
In the same order, the values of `CC(C(=O)N(C)CC[C@H](Oc1ccc(C(F)(F)F)cc1)c1ccccc1)c1ccc(CN(C)C)cc1` (stereo partly drawn) [Compound 25b] are 15.2%, 6.9%, -3.3% and 0.2%.
`CC(C(=O)N(C)CC[C@H](Oc1ccc(C(F)(F)F)cc1)c1ccccc1)c1ccc(CC2CCCC2=O)cc1` (stereo partly drawn) [Compound 29b]: the “% Inhibition Antagonist CB1” value in test [1] worked out at 31.2%. The “% Activation Agonist GLP-1” value in test [2] was 6.2%. Also, the “% Activation Agonist CB1” value in test [3] is given as −0.2%. Also, the “% Inhibition Antagonist GLP-1” value in test [4] (setting [5]) was found to be 0.0%.
Regarding `CC(C)Cc1ccc(C2(C(=O)N(C)CC[C@@H](Oc3ccc(C(F)(F)F)cc3)c3ccccc3)CCC2)cc1` [Compound 30a], the “% Inhibition Antagonist CB1” value in test [1] was found to be 84.6%. Besides, the “% Activation Agonist GLP-1” value in test [2] is recorded as −3.7%. Moreover, the “% Activation Agonist CB1” value in test [3] was found to be 1.0%. In addition, the “% Inhibition Antagonist GLP-1” value in test [4] (setting [5]) is listed as 7.5%.
In the case of `CC(C)Cc1ccc(C2(C(=O)N(C)CC[C@H](Oc3ccc(C(F)(F)F)cc3)c3ccccc3)CCC2)cc1` [Compound 30b], in test [1], the “% Inhibition Antagonist CB1” value was 48.3%. For the same compound, in test [2], the “% Activation Agonist GLP-1” value is −3.4%. Moreover, in test [3], the “% Activation Agonist CB1” value is given as −0.8%. The “% Inhibition Antagonist GLP-1” value in test [4] (setting [5]) was 9.7%.
Consider `CC(C)Cc1ccc(CC(=O)N(C)CC[C@@H](Oc2ccc(C(F)(F)F)cc2)c2ccccc2)cc1` [Compound 32a], for which the inhibition at 1 µM turned out to be 90.7% in test [1] and 0.8% in test [4] (setting [5]). For the same compound, the activation at 1 µM in test [2] is 2.9%; in test [3], 4.5%.
With `CC(C)Cc1ccc(CC(=O)N(C)CC[C@H](Oc2ccc(C(F)(F)F)cc2)c2ccccc2)cc1` [Compound 32b], the “% Inhibition Antagonist CB1” value in test [1] was 23.0%. Besides, in test [2], the “% Activation Agonist GLP-1” value is −1.8%. Further, the “% Activation Agonist CB1” value in test [3] is on record as 2.1%. For the same compound, in test [4] (setting [5]), the “% Inhibition Antagonist GLP-1” value is given as −0.8%.
In the same order, the values of `CC(C(=O)N(C)CC[C@@H](Oc1ccc(C(F)(F)F)cc1)c1ccccc1)c1ccc(C(F)(F)F)cc1` (stereo partly drawn) [Compound 33a] are 90.7%, 0.9%, −0.3% and 11.4%.
Turning to `CC(C(=O)N(C)CC[C@H](Oc1ccc(C(F)(F)F)cc1)c1ccccc1)c1ccc(C(F)(F)F)cc1` (stereo partly drawn) [Compound 33b], the inhibition at 1 µM in test [1] is 45.8%; in test [4] (setting [5]), approximately 0%. The activation at 1 µM in test [2] amounted to 17.6%; in test [3] it was 0.5%.
On to `C[C@@H](C(=O)N(C)CC[C@@H](Oc1ccc(C(F)(F)F)cc1)c1ccccc1)c1ccc(C(F)(F)F)cc1` [Compound 33c], for which the inhibition at 1 µM is 80.1% in test [1] and 0.2% in test [4] (setting [5]). Further, the activation at 1 µM in test [2] was 0.8%; in test [3] it was -0.9%.
Regarding `C[C@H](C(=O)N(C)CC[C@@H](Oc1ccc(C(F)(F)F)cc1)c1ccccc1)c1ccc(C(F)(F)F)cc1` [Compound 33d], the inhibition at 1 µM in test [1] amounted to 82.8%; in test [4] (setting [5]), 11.4%. Moreover, the activation at 1 µM in test [2] was determined as 0.6%; in test [3], 1.4%.
With `C[C@@H](C(=O)N(C)CC[C@H](Oc1ccc(C(F)(F)F)cc1)c1ccccc1)c1ccc(C(F)(F)F)cc1` [Compound 33e], the inhibition at 1 µM is 0.8% in test [1] and 9.4% in test [4] (setting [5]). Moreover, the activation at 1 µM turned out to be 0.4% in test [2] and 1.7% in test [3].
Regarding `C[C@H](C(=O)N(C)CC[C@H](Oc1ccc(C(F)(F)F)cc1)c1ccccc1)c1ccc(C(F)(F)F)cc1` [Compound 33f], the inhibition at 1 µM amounted to 34% in test [1] and 11.5% in test [4] (setting [5]). In addition, the activation at 1 µM was -3.5% in test [2] and -0.5% in test [3].
Regarding `CCc1ccc(C(C)C(=O)N(C)CC[C@@H](Oc2ccc(C(F)(F)F)cc2)c2ccccc2)cc1` (stereo partly drawn) [Compound 34a], the inhibition at 1 µM in test [1] is 99%; in test [4] (setting [5]), -1%. The figures for the activation at 1 µM in test [2] and in test [3] were -0.8% and -2.9%, respectively.
In the case of `CC(C)Cc1ccccc1C(C)C(=O)N(C)CC[C@@H](Oc1ccc(C(F)(F)F)cc1)c1ccccc1` (stereo partly drawn) [Compound 38a], the inhibition at 1 µM in test [1] was 98.5%; in test [4] it was -20.2%.

A word on the inhibition: it is the change of the read-out against control, counted positive when it falls.

These data come from patent US20100292289A1 (priority 2007, published 2010).
